# Measured values reported in patent US20140079634A1, “LABELED PE2I FORMULATION AND METHOD” (priority 2012, published 2014).
# Columns and labels:
# Type in all cases: in vivo
# [1] = target: dopamine transporter (Rattus norvegicus, UniProt P23977); experiment: SPECT scan, transporter occupancy and binding parameters (Parkinson's Diagnosis)
# Experimental: A SPECT scan is performed. Strong evidence of different nonspecific binding in the striatal region, compared with the reference region is found, leading to bias in the estimate of dopaminergic denervation (range, 36%-94% severity) was found. […] The 6-hydroxydopamine lesion affected B(max) (control, 402±94 pmol/mL; lesioned, 117±120 pmol/mL; P=0.003) but not K app d (control, 331±63 pmol/mL; lesioned, 362±119 pmol/mL; P=0.63).
# [2] = target: T1, dopamine transporter (Homo sapiens, UniProt Q01959); experiment: SPECT imaging of the dopamine transporter, ADHD subjects; details: six ADHD individuals, greater than 1 mCi intravenous
# T1 construct: from tissue; host or cells: striatum in vivo (SPECT imaging of subjects)
# T1 sequence (Q01959 whole entry): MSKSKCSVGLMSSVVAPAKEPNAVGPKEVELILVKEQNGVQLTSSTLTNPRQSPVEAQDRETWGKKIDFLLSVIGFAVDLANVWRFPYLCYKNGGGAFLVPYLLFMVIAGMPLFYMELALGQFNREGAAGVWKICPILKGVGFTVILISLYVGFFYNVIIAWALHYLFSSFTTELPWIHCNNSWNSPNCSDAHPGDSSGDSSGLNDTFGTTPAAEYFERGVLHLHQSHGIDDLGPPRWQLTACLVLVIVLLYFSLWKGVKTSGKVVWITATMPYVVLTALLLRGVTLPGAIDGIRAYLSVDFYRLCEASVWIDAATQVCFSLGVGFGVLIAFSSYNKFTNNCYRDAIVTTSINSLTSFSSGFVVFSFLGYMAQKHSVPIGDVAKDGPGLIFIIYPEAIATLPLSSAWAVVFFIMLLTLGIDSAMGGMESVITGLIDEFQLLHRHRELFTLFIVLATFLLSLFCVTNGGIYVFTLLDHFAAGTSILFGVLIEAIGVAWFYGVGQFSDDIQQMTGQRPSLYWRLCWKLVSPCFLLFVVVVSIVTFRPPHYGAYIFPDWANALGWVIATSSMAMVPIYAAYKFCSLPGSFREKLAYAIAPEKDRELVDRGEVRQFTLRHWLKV
# Experimental: (§1) SPECT imaging of the dopamine transporter with 1231-PE2I is conducted on six subjects previously diagnosed with ADHD, and on control individuals without a diagnosis of ADHD. For each individual tested, greater than 1 mCi of 1231-PE2I is administered by intravenous injection at the onset of imaging. Images of the striatum are collected and analyzed by a radiologist to determine striatal binding potentials. In general, the methodology used for the SPECT imaging is the same as the methods described in Fischman et al., 1998, Synapse 29:125-41, which is incorporated herein by reference.
# [3] = target: T1, dopamine transporter; experiment: SPECT imaging of the dopamine transporter, Lewy Body Dementia subjects; details: six Lewy Body Dementia individuals, greater than 1 mCi intravenous
# Experimental: as §1, with “^123I-PE2I” for “1231-PE2I”, “Lewy Body Dementia,” for “ADHD,”, “Lewy Body Dementia.” for “ADHD.”, “29:125 41,” for “29:125-41,”
# Chain of dopamine transporter (Rattus norvegicus, UniProt P23977) (P23977 whole entry): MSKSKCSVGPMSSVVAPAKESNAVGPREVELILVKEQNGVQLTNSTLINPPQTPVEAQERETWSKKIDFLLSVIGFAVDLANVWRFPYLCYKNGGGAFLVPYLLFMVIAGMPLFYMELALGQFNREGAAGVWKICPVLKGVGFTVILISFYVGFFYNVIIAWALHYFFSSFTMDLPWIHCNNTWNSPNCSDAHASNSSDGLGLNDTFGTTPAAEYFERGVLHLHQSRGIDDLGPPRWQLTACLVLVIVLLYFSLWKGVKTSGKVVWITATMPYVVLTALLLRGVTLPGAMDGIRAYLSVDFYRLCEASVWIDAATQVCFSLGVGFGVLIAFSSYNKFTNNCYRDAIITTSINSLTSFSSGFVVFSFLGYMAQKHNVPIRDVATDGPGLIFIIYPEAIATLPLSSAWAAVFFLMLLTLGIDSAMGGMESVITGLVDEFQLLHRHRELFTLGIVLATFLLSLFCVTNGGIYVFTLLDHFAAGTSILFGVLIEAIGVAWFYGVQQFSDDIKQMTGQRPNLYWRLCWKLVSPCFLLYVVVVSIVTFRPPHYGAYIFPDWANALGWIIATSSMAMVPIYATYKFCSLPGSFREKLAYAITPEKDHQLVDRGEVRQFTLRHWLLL
structure (smiles),measurement,setting,value
"COC(=O)[C@@H]1C2CC[C@H](C[C@@H]1c1ccc(C)cc1)N2C/C=C/I [[^123I]-PE2I, [^123I] N-(3-iodoprop-2E-enyl)-2β-carbomethoxy-3β-(4-methylphenyl)-nortropane]",B(max),[1]; 6-hydroxydopamine lesioned,117 ± 120 pmol/mL
same,B(max),[1]; control,402 ± 94 pmol/mL
same,striatal binding potential versus expected levels for aged matched normal individuals,[2],reduced binding potential
same,striatal binding potential versus expected levels for aged matched normal individuals,[3],reduced binding potential
